Data as given in patent US6369101B1, “Therapeutic method to treat herpes virus infection” (Regents of the University of Minnesota, priority 1999, dated 2002).
Values after ≈ are worked out from the molar mass of the structure shown.

Experiments:
[1] = test system: HSV-2 strain MS; test: CPE inhibition assay, HSV-2 MS in human foreskin fibroblast cells; assay type: cell-based, herpes simplex virus type 2; details: for EC50 HSV-2 MS: CPE inhibition in HFF cells; for Qualitative CPE at 2.0 ml dose HSV-2 MS: key: +++ = Complete cytopathic effect; ++ = Moderate cytopathic effect; + = Minimum cytopathic effect; − = No cytopathic effect
[2] = test system: HSV-1 strain F; test: CPE inhibition, HSV-1 strain F in HEp-2 cells; for Cytopathic Effect (CPE) Inhibition HSV-1 Strain F: key: +++ = Complete cytopathic effect; ++ = Moderate cytopathic effect; + = Minimum cytopathic effect; − = No cytopathic effect; assay type: cell-based, herpes simplex virus type 1; details: for Cytopathic Effect (CPE) Inhibition HSV-1 Strain F: conc. per compound (ng/ml)
[3] = test system: HSV-1 (strain F); test: Plaque reduction assay, HSV-1 strain F in HEp-2 cells; assay type: cell-based, herpes simplex virus type 1
Protocol: (§1) HEp-2 cells were grown to monolayer in 24 well tissue culture plates in DMEM containing 10% fetal calf serum at 37° C. for 24-36 hours in the presence of 5% CO2. The monolayer of HEp-2 cells was infected with 0.1 ml of HSV- 1 (strain F) or HSV-2 (strain G) containing 100 pfu. The viruses were allowed to adsorb for 1 hour at 37° C. in the presence of 5% CO2. All wells containing virus infected cells except virus control were overlaid with 0.9 ml of DMEM and 1 ml of test compound. The virus control and cell control received DMEM only. All microtiter plates were incubated at 37° C. in the presence of 5% CO2 and observed twice daily for 72 hours for viral CPE. At the end of the experiment, plates were stained with 0.1% crystal violet and the results were quantified by counting plaque forming units.

[4] = test system: HSV-2 (strain G); test: Plaque reduction assay, HSV-2 strain G in HEp-2 cells; assay type: cell-based, herpes simplex virus type 2; details: HSV-2 virus control 47
Protocol: as §1

[5] = test system: HFF cells; test: CC50 in HFF cells (Table 3); assay type: cell-based, human; details: HFF cells
Protocol: The cells were observed daily for any change in morphology. The rounding and lysis of cells were observed if the compound has cytotoxic effect. At the end of this time, the media-drug solution was removed and the cells washed. […] The cells-media mixture was then pipetted up and down several times to resuspend the cells and 0.2 ml of the cell suspension was added to 9.8 ml of trypan blue and cells were counted using hemocytometer. Each sample was counted three times with three replicate wells per sample.

[6] = HFF cells, solution conc. per compound (ng/ml) (Acyclovir 250)
[7] = conc. per compound (ng/ml) (Acyclovir 250)
[8] = Varicella-Zoster Virus section of Table 3

Row | Compound | EC50 HSV-2 MS [1] [µg/mL] | Qualitative CPE at 2.0 ml dose HSV-2 MS ([1]; HFF cells, Conc. 12500 ng/ml) | Qualitative CPE at 2.0 ml dose HSV-2 MS [1, 6] | Cytopathic Effect (CPE) Inhibition HSV-1 Strain F [2] | Plaque Reduction Assay Average pfu/10^5 Cells HSV-1 Strain F ([3]; Conc. 12500 ng/ml, HSV-1 virus control 5) [pfu/10^5 Cells] | Plaque Reduction Assay Average pfu/10^5 Cells HSV-1 Strain F ([3]; Conc. 12500 ng/ml, HSV-1 virus control 5, listed as Acyclovir®) | Plaque Reduction Assay Average pfu/10^5 Cells HSV-2 Strain G ([4]; Conc. 12500 ng/ml) [pfu/10^5 Cells] | Plaque Reduction Assay Average pfu/10^5 Cells HSV-2 Strain G [4, 7] [pfu/10^5 Cells] | CC50 [5, 8] [µg/mL] | anti HSV-2 activity (in words) ([1]; HFF cells, HSV-2) | anti HSV-1 activity (in words) ([2]; qualitative CPE inhibition assay) | Plaque Reduction Assay Average pfu/10^5 Cells HSV-1 Strain F ([3]; conc. per compound as in column Conc. (ng/ml), HSV-1 virus control 5) [pfu/10^5 Cells] | Plaque Reduction Assay Average pfu/10^5 Cells HSV-1 Strain F ([3]; conc. per compound as in column Conc. (ng/ml), HSV-1 virus control 5, listed as betulin) | CC50 ([5]; Human Cytomegalovirus section of Table 3) [µg/mL]
1 | acycloguanosine [Acyclovir, reference compound] | 6 | + | +++ | +++ | 0 | no plaque | 30 | 42 | >100 | – | – | – | – | –
2 | C=C(C)[C@@H]1CC[C@]2(CO)CC[C@]3(C)[C@H](CC[C@@H]4[C@@]5(C)CC[C@H](O)C(C)(C)[C@@H]5CC[C@]43C)[C@@H]12 [Betulin, lup-20(29)-ene-3β, 28-diol, reference compound] | ~0.125 (≈ 0.282 µM) | – | + | + | – | – | – | 16 | 0.0141 (≈ 0.0318 µM) | significant anti HSV-2 activity | significant anti HSV-1 activity | 0 | no plaque | 0.0142 (≈ 0.0321 µM)
